Where only a bound is given, the exact number is not on record here.

The results in this text go back to ChEMBL document CHEMBL4400546, “A Cinchona Alkaloid Antibiotic That Appears To Target ATP Synthase in Streptococcus pneumoniae” (J Med Chem, 2019).

The test system of one series is Streptococcus pneumoniae. As to the kind of experiment: Antibacterial activity against Streptococcus pneumoniae D39 after 20 hrs by CLSI-based microdilution method. In kind it is functional. The settings on record: D39, 20 h.
The nature of series [1]: Cytotoxicity against human HepG2 cells assessed as reduction in cell viability after 48 hrs by Alamar Blue assay. In kind it is cell-based. On the technique in general: Resazurin is reduced to fluorescent resorufin, in cell work by metabolically active cells.
A short description of series [2]: Drug level in ICR mouse liver microsomes treated with 6-Cyclobutoxy-(R)-4-[((1S,2S,4S,5E)-5-ethylidene-1-azabicyclo[2.2.2]octan-2-yl)hydroxymethyl]quinoline at 10 uM preincubated with NADPH for 10 mins and measured after 90 mins by LC-MS/MS analysis. In kind it is ADME, Microsome. The settings on record: 1.5 h.
Series [3] can be described thus: Drug level in ICR mouse liver microsomes treated with 6-Cyclobutoxy-(R)-4-[((1S,2S,4S,5Z)-5-ethylidene-1-azabicyclo-[2.2.2]octan-2-yl)hydroxymethyl]quinoline at 10 uM preincubated with NADPH for 10 mins and measured after 90 mins by LC-MS/MS analysis. In kind it is ADME, Microsome. As to conditions: 1.5 h.

For orientation: MIC means the smallest concentration in the dilution series that meets the test's criterion for growth inhibition. A low value points to a more susceptible organism. As a reminder, the CC50 is the concentration giving 50% cytotoxicity. For `CC=C1C[N@]2CC[C@H]1C[C@H]2[C@H](O)c1ccnc2ccc(OCC)cc12`, the MIC in the series on Streptococcus pneumoniae worked out at 1 µM. Further, the CC50 at 48 h in series [1] was > 100 µM.
On to `COc1ccc2nccc([C@@H](O)[C@@H]3C[C@@H]4CC[N@@]3C[C@@H]4[C@H](O)CO)c2c1`, for which, in the series with Streptococcus pneumoniae, the MIC was > 357 µM. For the same compound, the half-maximal cytotoxic concentration (CC50) at 48 h in series [1] was > 100 µM.
Taken in the same sequence, the figures for `CCOC(=O)CCCON=C1C[N@]2CC[C@H]1C[C@H]2[C@H](O)c1ccnc2ccc(OC)cc12` were 299 µM and > 100 µM.
Taken in the same sequence, the figures for `CC=C1C[N@]2CC[C@H]1C[C@H]2[C@@H](F)c1ccnc2ccc(OC)cc12` were > 392 µM and > 100 µM.
Turning to `C/C=C1\C[N@]2CC[C@H]1C[C@H]2[C@H](O)c1ccnc2ccc(O[C@H]3O[C@H](C(=O)O)[C@@H](O)[C@H](O)[C@H]3O)cc12`, the Drug uptake result in series [2] and in series [3] was “Active” each time.
Consider `COc1ccc2nccc([C@@H](O)[C@@H]3C[C@@H]4CC[N@@]3C/C4=N/OC3CCCC3)c2c1`, for which, in the series with Streptococcus pneumoniae, the MIC was 40 to 81 µM. For the same compound, the CC50 at 48 h in series [1] is > 100 µM.
As to `C=C[C@H]1C[N@@]2CC[C@H]1C[C@H]2[C@H](O)c1ccnc2ccc(OC)cc12` [QUININE], in series [1], the CC50 at 48 h was > 100 µM.
`CC=C1C[N@]2CC[C@H]1C[C@H]2[C@H](O)c1ccnc2ccc(OCCCC)cc12`: the MIC in the series with Streptococcus pneumoniae is 11 µM. Moreover, the CC50 at 48 h in series [1] turned out to be 27 µM.
In the series on Streptococcus pneumoniae, `CC[C@H]1CN2CC[C@H]1C[C@H]2[C@H](O)c1ccnc2ccc(O)cc12` displayed a minimum inhibitory concentration (MIC) of 204 µM. The half-maximal cytotoxic concentration (CC50) at 48 h in series [1] was > 100 µM.
Taken in the same sequence, the figures for `CC=C1C[N@]2CC[C@H]1C[C@H]2[C@H](O)c1ccnc2ccc(OCC3CC3)cc12` were 5 µM and > 100 µM.
`COC(=O)CCCON=C1C[N@]2CC[C@H]1C[C@H]2[C@H](O)c1ccnc2ccc(OC)cc12`: the MIC in the series with Streptococcus pneumoniae is 299 µM. Moreover, in series [1], the CC50 at 48 h was > 100 µM.
Taken in the same sequence, the figures for `C=C[C@H]1CN2CC[C@@H]1C[C@H](F)[C@H]2c1ccnc2ccc(OC)cc12` were 392 µM and > 100 µM.
For `COc1ccc2nccc([C@@H](O)[C@@H]3C[C@@H]4CC[N@@]3CC4=NOCC(F)(F)F)c2c1`, in the series on Streptococcus pneumoniae, the MIC is > 313 µM. In addition, the cytotoxic concentration (CC50) at 48 h in series [1] is > 100 µM.
Taken in the same sequence, the figures for `C#CCON=C1C[N@]2CC[C@H]1C[C@H]2[C@H](O)c1ccnc2ccc(OC)cc12` were 175 µM and > 100 µM.
Consider `CC[C@H]1C[N@]2CC[C@H]1C[C@H]2[C@H](O)c1ccnc2ccc(OCC3CC3)cc12`, for which, in the series with Streptococcus pneumoniae, the MIC came out at 22 µM. In series [1], the CC50 at 48 h was 87 µM.
Taken in the same sequence, the figures for `CC=C1C[N@]2CC[C@H]1C[C@H]2[C@H](O)c1ccnc2ccc(OC3CCCC3)cc12` were 5 µM and 48 µM.
As for `CC=C1C[N@]2CC[C@H]1C[C@H]2[C@H](O)c1ccnc2ccc(OCC(F)(F)F)cc12`, in the series with Streptococcus pneumoniae, inhibition of growth (MIC) required 5 µM. The 50% cytotoxic concentration (CC50) at 48 h in series [1] is > 100 µM.
Taken in the same sequence, the figures for `CC[C@H]1C[N@]2CC[C@H]1C[C@H]2[C@H](O)c1ccnc2ccc(OC3CCC3)cc12` were 5 µM and 51 µM.
Taken in the same sequence, the figures for `CC[C@H]1C[N@]2CC[C@H]1C[C@H]2[C@H](O)c1ccnc2ccc(OC(C)C)cc12` were 11 µM and 86 µM.
In the series on Streptococcus pneumoniae, `C=CCOc1ccc2nccc([C@@H](O)[C@@H]3C[C@@H]4CC[N@@]3C[C@@H]4CC)c2c1` displayed a minimum inhibitory concentration (MIC) of 11 to 22 µM. Also, the CC50 at 48 h in series [1] was determined as 78 µM.
The compound `CC=C1C[N@]2CC[C@H]1C[C@@H]2[C@H](F)c1ccnc2ccc(OC)cc12` came in with an MIC against Streptococcus pneumoniae of 392 µM. In series [1], the 50% cytotoxic concentration (CC50) at 48 h is > 100 µM.
Taken in the same sequence, the figures for `COc1ccc2nccc([C@@H](O)[C@@H]3C[C@@H]4CC[N@@]3CC4=NOC3CCC3)c2c1` were 84 µM and > 100 µM.
In turn, `CCCCON=C1C[N@]2CC[C@H]1C[C@H]2[C@H](O)c1ccnc2ccc(OC)cc12` returned a minimal inhibitory concentration (MIC) against Streptococcus pneumoniae of 21 to 42 µM. In addition, the CC50 at 48 h in series [1] is > 100 µM.
For the compound `O=C(c1ccnc2ccc(OC3CCC3)cc12)[C@@H]1C[C@@H]2CC[N@@]1C/C2=C\CO`, the Drug uptake entry in series [2] and in series [3] was “Active” in each case.
With `CC=C1C[N@]2CC[C@H]1C[C@H]2[C@H](O)c1ccnc2ccc(OCc3ccccc3)cc12`, it took 40 µM to inhibit growth against Streptococcus pneumoniae (MIC). The CC50 at 48 h in series [1] turned out to be 47 µM.
As to `C/C=C1\C[N@]2CC[C@H]1C[C@H]2C(=O)c1ccnc2ccc(O)cc12`, the Drug uptake entry in series [2] and in series [3] was “Active” each time.
With `CC=C1C[N@]2CC[C@H]1C[C@@H]2[C@@H](O)c1ccnc2ccc(OC)cc12`, in the series with Streptococcus pneumoniae, the minimum inhibitory concentration (MIC) is > 395 µM. In series [1], the CC50 at 48 h was > 100 µM.
For the compound `C/C=C1\CN2CC[C@H]1C[C@H]2[C@H](O)c1ccnc2ccc(O)cc12`, the Drug uptake result in series [2] and in series [3] was “Active” throughout.
As for `CCCOc1ccc2nccc([C@@H](O)[C@@H]3C[C@@H]4CC[N@@]3C[C@@H]4CC)c2c1`, the MIC in the series on Streptococcus pneumoniae turned out to be 11 µM. In addition, the CC50 at 48 h in series [1] worked out at 57 µM.
For the compound `CC[C@H]1C[N@]2CC[C@H]1C[C@@H]2[C@H](F)c1ccnc2ccc(OC)cc12`, the MIC in the series with Streptococcus pneumoniae was > 390 µM. In addition, the CC50 at 48 h in series [1] is > 100 µM.
Taken in the same sequence, the figures for `CCON=C1C[N@]2CC[C@H]1C[C@H]2[C@H](O)c1ccnc2ccc(OC)cc12` were 360 µM and > 100 µM.
For `O=c1cc([C@@H](O)[C@@H]2C[C@@H]3CC[N@@]2C/C3=C\CO)c2cc(OC3CCC3)ccc2[nH]1`, the Drug uptake entry in series [2] and in series [3] was “Active” in each case.
With `CC=CC1C[N@]2CC[C@H]1C[C@H]2[C@H](O)c1ccnc2ccc(OC)cc12` (stereo partly drawn), it took 12 µM to inhibit growth in the series with Streptococcus pneumoniae (MIC). The CC50 at 48 h in series [1] is > 100 µM.
Taken in the same sequence, the figures for `COc1ccc2nccc([C@@H](O)[C@@H]3C[C@@H]4CC[N@@]3C/C4=N/O)c2c1` were > 391 µM and > 100 µM.
In turn, `COc1ccc2nccc([C@@H](O)[C@@H]3C[C@@H]4CC[N@@]3C/C4=N/OC(C)C)c2c1` displayed a minimum inhibitory concentration (MIC) with Streptococcus pneumoniae of 43 to 86 µM. Besides, the CC50 at 48 h in series [1] is > 100 µM.
Taken in the same sequence, the figures for `CC[C@H]1C[N@]2CC[C@H]1C[C@H]2[C@H](O)c1ccnc2ccc(OCc3ccccc3)cc12` were 16 to 32 µg/mL and 76 µM.
Taken in the same sequence, the figures for `CCCO/N=C1/C[N@]2CC[C@H]1C[C@H]2[C@H](O)c1ccnc2ccc(OC)cc12` were 86 µM and > 100 µM.
Taken in the same sequence, the figures for `CON=C1C[N@]2CC[C@H]1C[C@H]2[C@H](O)c1ccnc2ccc(OC)cc12` were 375 to 750 µM and > 100 µM.
In the series on Streptococcus pneumoniae, `CC[C@H]1CN2CC[C@H]1C[C@H]2[C@H](O)c1ccnc2ccc(OC)cc12` [HYDROQUININE] gave an MIC of 98 µM. The CC50 at 48 h in series [1] was > 100 µM.
Taken in the same sequence, the figures for `COc1ccc2nccc([C@@H](O)[C@@H]3C[C@@H]4CC[N@@]3C/C4=N/OCC3CC3)c2c1` were 42 to 84 µM and > 100 µM.
Take `CC[C@H]1C[N@]2CC[C@H]1C[C@H]2[C@H](O)c1ccnc2ccc(OC3CCCC3)cc12`: 5 µM was the least that counted as inhibitory against Streptococcus pneumoniae (MIC). In series [1], the 50% cytotoxic concentration (CC50) at 48 h is > 100 µM.
As for `CC=C1C[N@]2CC[C@H]1C[C@H]2[C@H](O)c1ccnc2ccc(OC)cc12`, 12 µM was the least that counted as inhibitory in the series on Streptococcus pneumoniae (MIC). Further, in series [1], the CC50 at 48 h was > 100 µM.
Taken in the same sequence, the figures for `C=CCOc1ccc2nccc([C@@H](O)[C@@H]3C[C@@H]4CC[N@@]3CC4=CC)c2c1` were 4 µM and 54 µM.
With `CCCCOc1ccc2nccc([C@@H](O)[C@@H]3C[C@@H]4CC[N@@]3C[C@@H]4CC)c2c1`, 22 µM was the least that counted as inhibitory with Streptococcus pneumoniae (MIC). Besides, the cytotoxic concentration (CC50) at 48 h in series [1] worked out at 41 µM.
Regarding `COc1ccc2nccc([C@@H](O)[C@@H]3C[C@@H]4CC[N@@]3CC4=O)c2c1`, in the series with Streptococcus pneumoniae, the MIC was > 410 µM. Also, the cytotoxic concentration (CC50) at 48 h in series [1] was > 100 µM.
Take `CC=C1C[N@]2CC[C@H]1C[C@H]2[C@H](O)c1ccnc2ccc(OCCC)cc12`: in the series with Streptococcus pneumoniae, the minimal inhibitory concentration (MIC) fell in the range of 3 to 6 µM. For the same compound, the CC50 at 48 h in series [1] came out at 51 µM.
Taken in the same sequence, the figures for `CC=C1C[N@]2CC[C@H]1C[C@H]2[C@H](O)c1ccnc2ccc(OC(C)CO)cc12` (mixture of isomers) were 5 µM and > 100 µM.
In the series with Streptococcus pneumoniae, `CC=C1C[N@]2CC[C@H]1C[C@H]2[C@H](O)c1ccnc2ccc(OC(C)C)cc12` registered an MIC of 1 µM. Also, the CC50 at 48 h in series [1] was 54 µM.
Taken in the same sequence, the figures for `COc1ccc2nccc([C@@H](O)[C@@H]3C[C@@H]4CC[N@@]3CC4=NOCc3ccccc3)c2c1` were 77 µM and > 100 µM.
Taken in the same sequence, the figures for `CC[C@H]1C[N@]2CC[C@H]1C[C@H]2[C@H](O)c1ccnc2ccc(OCC(F)(F)F)cc12` were 10 µM and 72 µM.
Taken in the same sequence, the figures for `C=CCON=C1C[N@]2CC[C@H]1C[C@H]2[C@H](O)c1ccnc2ccc(OC)cc12` were 174 µM and 51 µM.
For `OC/C=C1\C[N@]2CC[C@H]1C[C@H]2[C@H](O)c1ccnc2ccc(OC3CCC3)cc12`, the Drug uptake entry in series [2] and in series [3] was “Active” in each case.
